# Patent US8367116B2, “Buoyant polymer particles for delivery of therapeutic agents to the central nervous system” (Seacoast Neuroscience, Inc., priority 2002, dated 2013)
# Legend:
# [1] = cited from earlier work
# [2] = system: rat middle cerebral artery occlusion (MCAo) stroke model; assay: Rat MCAo stroke model, drugs delivered into the ventricle (CSF) by osmotic pump (FIG. 4, FIG. 5); format: in vivo, Sprague-Dawley rat; details: given within the CSF
# Experimental: The parietal branch of the middle cerebral artery of the Sprague-Dawley rat is permanently occluded with a 10-0 nylon suture. The common carotid arteries are occluded temporarily for one hour. All drugs and vehicle are given beginning two hours post ischemia. Rats are sacrificed 24-hours later and the size of the infarct measured as a percent infarction of the total volume of the brain (mm^3) using imaging analysis. […], drugs are administered into the ventricle using an Alza osmotic pump (#20010) at a flow rate of 8 ul/hr over 24 hours.
# Animals were treated with vehicle (n=23), Antioxidant (n=8), Prodrug (n=7) or an NMDA antagonist (n=7).
# [3] = system: corticospinal tract axons; assay: Severed corticospinal tract model, inosine infused into the motor cortex, axon tracing; format: in vivo, rats; details: after 14 days of treatment
# Source text: In one model, one side of the corticospinal tract in rats is severed as it courses through the brainstem. Inosine is then infused directly into the motor cortex of the brain, the site of origin for those axons descending into the non-injured side of the corticospinal tract. After 14 days of treatment, newly grown axon branches are traced by injecting a dye into the treated nerve cells in the cortex. Animals are then sacrificed and the spinal cord examined for histology evidence of new axon growth. […] These new axonal branches then continued to descend down the injured side of the corticospinal tract, effectively replacing severed axons with new ones. […] The number of collateral (new) axons ranged up to 2,500 per treated animal, compared to 28-170 axons seen in control animals.
# [4] = system: rats with unilateral cortical infarcts (stroke); details: cited from earlier work
# [5] = adult rats with unilateral cortical infarcts
SMILES,citicholine dose taken up into brain tissue ([1]; administered i.v.),citicholine dose penetrating into brain tissue ([1]; administered orally),initial dose found in the brain ([1]; given through the blood stream),dose response on infarct [2],collateral sprouting of axons from uninjured to injured side of corticospinal tract ([3]; almost all treated animals),number of collateral (new) axons per treated animal ([3]; control animals 28-170 axons),"GAP-43 stained newly growing axons on the denervated side ([4]; FIG. 7 B, E, after stroke)","axons crossing from undamaged side of brain to denervated side of spinal cord ([4]; FIG. 7 D, after stroke)","new projections to denervated areas of midbrain and spinal cord [4, 5]","performance on behavioral measures [4, 5]","recovery of limb function ([4]; intravenous administration, same animal model)"
"C[N+](C)(C)CCOP(=O)(O)OP(=O)([O-])OC[C@H]1O[C@@H](n2ccc(N)nc2=O)[C@H](O)[C@@H]1O [Citicholine, Cytidine-5′-diphosphocholine]",about 2%,about 0.5%,less than 1%,dose response effect,–,–,–,–,–,–,–
OC[C@H]1O[C@@H](n2cnc3c(O)ncnc32)[C@H](O)[C@@H]1O [Inosine],–,–,–,–,extensive collateral sprouting of axons,"up to 2,500",many,causes many axons (red) to cross over,stimulated neurons on the undamaged side of the brain to extend new projections,improved performance,little or no significant recovery
